Laboratory results as given in the supplement of paper PMC10307832.

Assays:
Assay in all cases: relative viability (nuclei count vs DMSO), 5 days (fraction); higher = more cells survive
[1] = compound: CC1=NN=C(O1)C2=NN=C(C=C2)N3CCC(CC3)OC4=C(C=CC(=C4)F)Cl + O=C(CCCCCCC(=O)Nc1ccccc1)NO [Vorinostat] (partner 1 µM)
Summary of the method: (§1)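 Relative viability is defined as nuclei in treated wells over nuclei in vehicle wells. Duplicate plates were run and medians reported. Lung cancer cell lines in 1536-well plates were dosed by pin tool one day after seeding, with one drug or with a fixed anchor-drug dose plus five library-drug doses (not always all listed) in √10 steps, and nuclei were counted after 5 days.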

[2] = compound: CC1=NN=C(O1)C2=NN=C(C=C2)N3CCC(CC3)OC4=C(C=CC(=C4)F)Cl + Cc1cc(Nc2cc(N3CCN(C)CC3)nc(Sc3ccc(NC(=O)C4CC4)cc3)n2)n[nH]1 [Tozasertib] (partner 0.1 µM)
Summary of the method: as §1

[3] = compound: CC(C)C[C@@H](C(=O)N[C@H](C(=O)OC1CCCC1)c1ccccc1)[C@H](O)C(=O)NO [Tosedostat] + Nc1ncn([C@H]2C[C@H](O)[C@@H](CO)O2)c(=O)n1 [Decitabine] (partner 2 µM)
Summary of the method: as §1

[4] = compound: CC(C)C[C@@H](C(=O)N[C@H](C(=O)OC1CCCC1)c1ccccc1)[C@H](O)C(=O)NO [Tosedostat] + C[C@@H](Oc1cc(-c2cnn(C3CCNCC3)c2)cnc1N)c1c(Cl)ccc(F)c1Cl [Crizotinib] (partner 1 µM)
Summary of the method: as §1

Cell Line SW 900 has a relative viability ([1]; first compound 0.8 µM) of 0.287, a relative viability ([1]; first compound 2.53 µM) of 0.418 and a relative viability ([1]; first compound 8 µM) of 0.28. For the same cell line, the relative viability ([2]; first compound 2.53 µM) was 0.415, the relative viability ([2]; first compound 8 µM) was 0.477 and the relative viability ([3]; first compound 0.02 µM) was 0.463. For the same cell line, the relative viability ([3]; first compound 0.06325 µM) was 0.499, the relative viability ([3]; first compound 0.2 µM) was 0.405 and the relative viability ([3]; first compound 0.6325 µM) was 0.359. The relative viability ([3]; first compound 2 µM) was 0.415.
With SW 1573 the relative viability ([1]; first compound 0.253 µM) was 0.717, the relative viability ([1]; first compound 0.8 µM) was 0.421 and the relative viability ([1]; first compound 2.53 µM) was 0.434. It also gave a relative viability ([1]; first compound 8 µM) of 0.251, a relative viability ([2]; first compound 0.253 µM) of 0.131 and a relative viability ([2]; first compound 0.8 µM) of 0.13. For the same cell line, the relative viability ([2]; first compound 2.53 µM) was 0.181, the relative viability ([2]; first compound 8 µM) was 0.246 and the relative viability ([4]; first compound 0.02 µM) was 0.711. For the same cell line, the relative viability ([4]; first compound 0.06325 µM) was 0.868, the relative viability ([4]; first compound 0.2 µM) was 0.637 and the relative viability ([4]; first compound 0.6325 µM) was 0.648. For the same cell line, the relative viability ([4]; first compound 2 µM) was 0.713, the relative viability ([3]; first compound 0.02 µM) was 0.675 and the relative viability ([3]; first compound 0.06325 µM) was 0.504. For the same cell line, the relative viability ([3]; first compound 0.2 µM) was 0.482, the relative viability ([3]; first compound 0.6325 µM) was 0.451 and the relative viability ([3]; first compound 2 µM) was 0.415.
In the case of NCI-H1648, the relative viability ([1]; first compound 0.253 µM) is reported as 0.376, the relative viability ([1]; first compound 0.8 µM) is reported as 0.417 and the relative viability ([1]; first compound 2.53 µM) is reported as 0.5. The relative viability ([1]; first compound 8 µM) was 0.513, the relative viability ([2]; first compound 0.253 µM) was 0.242 and the relative viability ([2]; first compound 0.8 µM) was 0.325. It also gave a relative viability ([2]; first compound 2.53 µM) of 0.293, a relative viability ([2]; first compound 8 µM) of 0.344 and a relative viability ([3]; first compound 0.02 µM) of 0.389. For the same cell line, the relative viability ([3]; first compound 0.06325 µM) was 0.426, the relative viability ([3]; first compound 0.2 µM) was 0.51 and the relative viability ([3]; first compound 0.6325 µM) was 0.421. It also gave a relative viability ([3]; first compound 2 µM) of 0.399.
A549 showed a relative viability ([4]; first compound 0.02 µM) of 0.869, a relative viability ([4]; first compound 0.06325 µM) of 0.726 and a relative viability ([4]; first compound 0.2 µM) of 0.702. The relative viability ([4]; first compound 0.6325 µM) was 0.652, the relative viability ([4]; first compound 2 µM) was 0.683 and the relative viability ([3]; first compound 0.02 µM) was 0.264. It also gave a relative viability ([3]; first compound 0.06325 µM) of 0.337, a relative viability ([3]; first compound 0.2 µM) of 0.24 and a relative viability ([3]; first compound 0.6325 µM) of 0.193. The relative viability ([3]; first compound 2 µM) was 0.292.
With A-427 the relative viability ([1]; first compound 0.253 µM) was 0.796, the relative viability ([1]; first compound 0.8 µM) was 0.689 and the relative viability ([1]; first compound 2.53 µM) was 0.791. For the same cell line, the relative viability ([1]; first compound 8 µM) was 0.703, the relative viability ([2]; first compound 0.253 µM) was 0.23 and the relative viability ([2]; first compound 2.53 µM) was 0.168. For the same cell line, the relative viability ([2]; first compound 8 µM) was 0.168, the relative viability ([4]; first compound 0.02 µM) was 0.972 and the relative viability ([4]; first compound 0.06325 µM) was 0.847. The relative viability ([4]; first compound 0.2 µM) was 0.87, the relative viability ([4]; first compound 0.6325 µM) was 0.916 and the relative viability ([4]; first compound 2 µM) was 0.895. It also gave a relative viability ([3]; first compound 0.02 µM) of 0.562, a relative viability ([3]; first compound 0.06325 µM) of 0.594 and a relative viability ([3]; first compound 0.2 µM) of 0.629. The relative viability ([3]; first compound 0.6325 µM) was 0.506 and the relative viability ([3]; first compound 2 µM) was 0.55.
Cell Line NCI-H2009 has a relative viability ([1]; first compound 0.253 µM) of 0.428, a relative viability ([1]; first compound 0.8 µM) of 0.343 and a relative viability ([1]; first compound 2.53 µM) of 0.422. The relative viability ([1]; first compound 8 µM) was 0.36, the relative viability ([2]; first compound 0.253 µM) was 0.372 and the relative viability ([2]; first compound 0.8 µM) was 0.39. The relative viability ([2]; first compound 2.53 µM) was 0.376, the relative viability ([2]; first compound 8 µM) was 0.353 and the relative viability ([4]; first compound 0.02 µM) was 1.07. The relative viability ([4]; first compound 0.06325 µM) was 1.07, the relative viability ([4]; first compound 0.2 µM) was 1 and the relative viability ([4]; first compound 0.6325 µM) was 1.02. It also gave a relative viability ([4]; first compound 2 µM) of 0.924, a relative viability ([3]; first compound 0.02 µM) of 0.379 and a relative viability ([3]; first compound 0.06325 µM) of 0.377. It also gave a relative viability ([3]; first compound 0.2 µM) of 0.404, a relative viability ([3]; first compound 0.6325 µM) of 0.433 and a relative viability ([3]; first compound 2 µM) of 0.329.
LCLC-97TM1 gave a relative viability ([1]; first compound 0.253 µM) of 0.649, a relative viability ([1]; first compound 2.53 µM) of 0.522 and a relative viability ([1]; first compound 8 µM) of 0.573. For the same cell line, the relative viability ([2]; first compound 0.253 µM) was 0.182, the relative viability ([2]; first compound 0.8 µM) was 0.137 and the relative viability ([2]; first compound 2.53 µM) was 0.172. For the same cell line, the relative viability ([2]; first compound 8 µM) was 0.207, the relative viability ([4]; first compound 0.02 µM) was 0.338 and the relative viability ([4]; first compound 0.6325 µM) was 0.288. The relative viability ([4]; first compound 2 µM) was 0.221, the relative viability ([3]; first compound 0.02 µM) was 0.186 and the relative viability ([3]; first compound 0.06325 µM) was 0.234. For the same cell line, the relative viability ([3]; first compound 0.2 µM) was 0.212, the relative viability ([3]; first compound 0.6325 µM) was 0.207 and the relative viability ([3]; first compound 2 µM) was 0.184.
With NCI-H1792 the relative viability ([4]; first compound 0.02 µM) was 1, the relative viability ([4]; first compound 0.06325 µM) was 0.991 and the relative viability ([4]; first compound 0.2 µM) was 1.04. The relative viability ([4]; first compound 0.6325 µM) was 0.963, the relative viability ([4]; first compound 2 µM) was 1.03 and the relative viability ([3]; first compound 0.02 µM) was 0.62. It also gave a relative viability ([3]; first compound 0.06325 µM) of 0.506, a relative viability ([3]; first compound 0.2 µM) of 0.52 and a relative viability ([3]; first compound 0.6325 µM) of 0.465. It also gave a relative viability ([3]; first compound 2 µM) of 0.525.
LCLC-103H showed a relative viability ([1]; first compound 0.253 µM) of 0.503, a relative viability ([1]; first compound 0.8 µM) of 0.478 and a relative viability ([1]; first compound 2.53 µM) of 0.531. It also gave a relative viability ([1]; first compound 8 µM) of 0.475, a relative viability ([2]; first compound 0.253 µM) of 0.411 and a relative viability ([2]; first compound 0.8 µM) of 0.362. The relative viability ([2]; first compound 2.53 µM) was 0.356, the relative viability ([2]; first compound 8 µM) was 0.324 and the relative viability ([4]; first compound 0.02 µM) was 1.09. For the same cell line, the relative viability ([4]; first compound 0.06325 µM) was 1.03, the relative viability ([4]; first compound 0.2 µM) was 1.06 and the relative viability ([4]; first compound 0.6325 µM) was 1.13. For the same cell line, the relative viability ([4]; first compound 2 µM) was 1.02, the relative viability ([3]; first compound 0.02 µM) was 0.792 and the relative viability ([3]; first compound 0.06325 µM) was 0.745. For the same cell line, the relative viability ([3]; first compound 0.2 µM) was 0.728, the relative viability ([3]; first compound 0.6325 µM) was 0.763 and the relative viability ([3]; first compound 2 µM) was 0.76.
LOU-NH91 gave a relative viability ([1]; first compound 0.8 µM) of 0.853, a relative viability ([1]; first compound 2.53 µM) of 0.807 and a relative viability ([1]; first compound 8 µM) of 0.922. It also gave a relative viability ([2]; first compound 0.253 µM) of 0.585, a relative viability ([2]; first compound 0.8 µM) of 0.587 and a relative viability ([2]; first compound 2.53 µM) of 0.664. The relative viability ([2]; first compound 8 µM) was 0.677, the relative viability ([4]; first compound 0.02 µM) was 0.86 and the relative viability ([4]; first compound 0.06325 µM) was 0.752. For the same cell line, the relative viability ([4]; first compound 0.2 µM) was 0.767, the relative viability ([4]; first compound 0.6325 µM) was 0.695 and the relative viability ([4]; first compound 2 µM) was 0.694. The relative viability ([3]; first compound 0.02 µM) was 0.82, the relative viability ([3]; first compound 0.06325 µM) was 0.797 and the relative viability ([3]; first compound 0.2 µM) was 0.806. It also gave a relative viability ([3]; first compound 0.6325 µM) of 0.726 and a relative viability ([3]; first compound 2 µM) of 0.74.
For BEN, the relative viability ([1]; first compound 0.253 µM) was 0.566, the relative viability ([1]; first compound 0.8 µM) was 0.536 and the relative viability ([1]; first compound 2.53 µM) was 0.551. It also gave a relative viability ([1]; first compound 8 µM) of 0.538, a relative viability ([2]; first compound 0.253 µM) of 0.505 and a relative viability ([2]; first compound 0.8 µM) of 0.423. It also gave a relative viability ([2]; first compound 2.53 µM) of 0.454, a relative viability ([2]; first compound 8 µM) of 0.46 and a relative viability ([4]; first compound 0.02 µM) of 0.894. For the same cell line, the relative viability ([4]; first compound 0.06325 µM) was 0.875, the relative viability ([4]; first compound 0.2 µM) was 0.818 and the relative viability ([4]; first compound 0.6325 µM) was 1.02. For the same cell line, the relative viability ([4]; first compound 2 µM) was 0.956, the relative viability ([3]; first compound 0.02 µM) was 0.79 and the relative viability ([3]; first compound 0.06325 µM) was 0.761. For the same cell line, the relative viability ([3]; first compound 0.2 µM) was 0.676, the relative viability ([3]; first compound 0.6325 µM) was 0.734 and the relative viability ([3]; first compound 2 µM) was 0.665.
